Results from ChEMBL document CHEMBL5537192, “Specific Inhibitors of Mitochondrial Deacylase Sirtuin 4 Endowed with Cellular Activity” (J Med Chem, 2024).

Legend:
[1] = biological target: T1, NAD-dependent protein lipoamidase sirtuin-4, mitochondrial (Homo sapiens, UniProt Q9Y6E7); assay: Inhibition of N-terminal 6His-tagged human Sirt4 (25 to 314 residues) expressed in Escherichia coli CodonPlus(DE3) cells using HMG-FdL as substrate at 100 uM preincubated for 20 mins followed by NAM addition and measured after 45 mins in presence of NAD+ by fluorescence based assay relative to control
T1 sequence (Q9Y6E7 whole entry): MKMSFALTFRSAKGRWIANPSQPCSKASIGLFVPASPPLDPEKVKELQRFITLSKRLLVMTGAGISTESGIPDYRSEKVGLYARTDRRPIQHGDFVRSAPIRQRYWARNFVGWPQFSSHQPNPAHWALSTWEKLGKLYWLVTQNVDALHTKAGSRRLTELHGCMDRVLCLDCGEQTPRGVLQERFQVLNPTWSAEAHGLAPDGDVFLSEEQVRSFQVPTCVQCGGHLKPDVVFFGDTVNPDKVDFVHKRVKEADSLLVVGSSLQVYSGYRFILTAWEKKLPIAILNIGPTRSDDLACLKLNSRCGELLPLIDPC

C2C12 = assay: Cytotoxicity against mouse C2C12 cells assessed as effect o cell viability at 1 to 100 uM incubated for 4 hrs by trypan blue reagent based phase contrast microscopic analysis; format: toxicity; settings: c2c12, 4 h, dose 1-100 µM

SMILES | IC50 [1] [µM] | Activity (C2C12)
NC(=O)C1=CN([C@@H]2O[C@H](COP(=O)(O)OP(=O)(O)OC[C@H]3O[C@@H](n4cnc5c(N)ncnc54)[C@H](O)[C@@H]3O)[C@@H](O)[C@H]2O)C=CC1 | ~126 | –
CCCc1cc(=O)[nH]c(SCC(=O)Nc2ccc(S(=O)(=O)c3ccc([N+](=O)[O-])cc3)cc2)n1 | – | Non-Toxic
